From ChEMBL document CHEMBL2396580, “Spongiacidin C, a pyrrole alkaloid from the marine sponge Stylissa massa, functions as a USP7 inhibitor” (Bioorg Med Chem Lett, 2013)
Calls of active or inactive are those of the source. No cut-off for these calls is given here.

Tests used:
HCT-116 = assay: Antiproliferative activity against p53 wild type human HCT116 cells expressing USP7 assessed as growth inhibition up to 50 uM; type: functional, cell-based
[1] = molecular target: T1, Sentrin-specific protease 1 (Homo sapiens, UniProt Q9P0U3); assay: Inhibition of core catalytic domain of SENP1 (unknown origin) using SUMO3-EKL as substrate
T1 sequence (Q9P0U3 whole entry): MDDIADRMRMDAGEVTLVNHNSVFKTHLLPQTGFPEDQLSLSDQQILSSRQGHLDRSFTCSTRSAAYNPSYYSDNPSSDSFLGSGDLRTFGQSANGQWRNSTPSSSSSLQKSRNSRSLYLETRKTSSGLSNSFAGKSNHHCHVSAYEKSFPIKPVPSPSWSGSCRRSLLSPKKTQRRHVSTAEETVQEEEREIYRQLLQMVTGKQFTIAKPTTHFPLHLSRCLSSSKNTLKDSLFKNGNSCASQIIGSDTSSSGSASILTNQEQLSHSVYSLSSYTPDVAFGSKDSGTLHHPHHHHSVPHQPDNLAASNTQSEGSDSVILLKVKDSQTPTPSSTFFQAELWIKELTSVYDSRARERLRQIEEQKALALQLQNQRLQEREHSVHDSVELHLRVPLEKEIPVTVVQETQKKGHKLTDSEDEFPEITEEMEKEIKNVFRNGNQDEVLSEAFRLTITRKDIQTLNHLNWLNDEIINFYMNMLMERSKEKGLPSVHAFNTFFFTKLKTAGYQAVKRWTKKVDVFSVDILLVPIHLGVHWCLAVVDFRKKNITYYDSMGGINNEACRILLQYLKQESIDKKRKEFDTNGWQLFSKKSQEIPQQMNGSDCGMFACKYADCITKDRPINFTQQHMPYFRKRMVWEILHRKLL

[2] = molecular target: T2, Ubiquitin carboxyl-terminal hydrolase 21 (Homo sapiens, UniProt Q9UK80); assay: Inhibition of core catalytic domain of USP21 (unknown origin) using ubiquitin-Rh110 as substrate
T2 sequence (Q9UK80 whole entry): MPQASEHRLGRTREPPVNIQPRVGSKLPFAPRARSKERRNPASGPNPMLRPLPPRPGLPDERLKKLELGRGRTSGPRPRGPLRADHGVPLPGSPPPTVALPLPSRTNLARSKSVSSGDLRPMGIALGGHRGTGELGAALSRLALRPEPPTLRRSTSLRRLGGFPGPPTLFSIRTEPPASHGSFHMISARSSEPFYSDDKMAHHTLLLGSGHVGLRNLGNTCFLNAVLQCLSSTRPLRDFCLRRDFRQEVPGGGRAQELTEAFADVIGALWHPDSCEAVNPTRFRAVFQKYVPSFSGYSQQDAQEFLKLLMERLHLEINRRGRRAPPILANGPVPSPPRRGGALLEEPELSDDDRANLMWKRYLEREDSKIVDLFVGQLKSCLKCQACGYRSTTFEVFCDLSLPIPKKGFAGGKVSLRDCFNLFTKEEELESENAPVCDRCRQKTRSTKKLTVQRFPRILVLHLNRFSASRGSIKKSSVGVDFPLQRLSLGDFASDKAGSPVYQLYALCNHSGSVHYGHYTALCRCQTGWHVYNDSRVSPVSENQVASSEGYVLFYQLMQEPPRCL

[3] = molecular target: T3, Ubiquitin carboxyl-terminal hydrolase 8 (Homo sapiens, UniProt P40818); assay: Inhibition of core catalytic domain of USP8 (unknown origin) using ubiquitin-Rh110 as substrate
T3 sequence (P40818 whole entry): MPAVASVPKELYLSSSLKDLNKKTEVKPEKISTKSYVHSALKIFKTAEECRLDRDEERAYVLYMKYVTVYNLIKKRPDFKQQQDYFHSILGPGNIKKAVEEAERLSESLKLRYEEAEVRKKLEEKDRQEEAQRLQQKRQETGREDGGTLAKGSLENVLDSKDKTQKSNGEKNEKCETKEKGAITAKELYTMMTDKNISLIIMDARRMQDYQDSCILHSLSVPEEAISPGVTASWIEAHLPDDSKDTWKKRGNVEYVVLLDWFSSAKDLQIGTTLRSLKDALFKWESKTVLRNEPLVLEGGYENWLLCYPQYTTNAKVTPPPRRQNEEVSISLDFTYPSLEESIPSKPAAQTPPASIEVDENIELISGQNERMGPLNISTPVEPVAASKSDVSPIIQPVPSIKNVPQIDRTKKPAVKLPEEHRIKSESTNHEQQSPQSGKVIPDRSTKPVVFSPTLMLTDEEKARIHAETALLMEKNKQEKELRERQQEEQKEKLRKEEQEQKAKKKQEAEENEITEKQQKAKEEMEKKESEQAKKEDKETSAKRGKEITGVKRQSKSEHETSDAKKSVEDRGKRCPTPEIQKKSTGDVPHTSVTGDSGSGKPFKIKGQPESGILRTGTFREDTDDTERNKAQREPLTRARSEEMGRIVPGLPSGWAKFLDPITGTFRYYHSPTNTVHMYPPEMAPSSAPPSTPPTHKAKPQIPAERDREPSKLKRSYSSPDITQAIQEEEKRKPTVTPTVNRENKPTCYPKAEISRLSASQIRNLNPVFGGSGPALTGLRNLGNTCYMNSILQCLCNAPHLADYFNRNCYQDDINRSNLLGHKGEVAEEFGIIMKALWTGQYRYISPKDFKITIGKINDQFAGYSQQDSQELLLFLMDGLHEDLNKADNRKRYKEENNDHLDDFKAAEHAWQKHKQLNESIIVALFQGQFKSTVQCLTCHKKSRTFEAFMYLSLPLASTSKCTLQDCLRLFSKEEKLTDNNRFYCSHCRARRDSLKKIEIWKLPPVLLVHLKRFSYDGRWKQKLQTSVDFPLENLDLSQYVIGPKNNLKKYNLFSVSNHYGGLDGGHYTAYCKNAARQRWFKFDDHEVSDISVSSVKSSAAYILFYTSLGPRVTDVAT

[4] = molecular target: T4, Ubiquitin carboxyl-terminal hydrolase 2 (Homo sapiens, UniProt O75604); assay: Inhibition of core catalytic domain of USP2 (unknown origin) using diubiquitin IQF K4804 as substrate
T4 sequence (O75604 whole entry): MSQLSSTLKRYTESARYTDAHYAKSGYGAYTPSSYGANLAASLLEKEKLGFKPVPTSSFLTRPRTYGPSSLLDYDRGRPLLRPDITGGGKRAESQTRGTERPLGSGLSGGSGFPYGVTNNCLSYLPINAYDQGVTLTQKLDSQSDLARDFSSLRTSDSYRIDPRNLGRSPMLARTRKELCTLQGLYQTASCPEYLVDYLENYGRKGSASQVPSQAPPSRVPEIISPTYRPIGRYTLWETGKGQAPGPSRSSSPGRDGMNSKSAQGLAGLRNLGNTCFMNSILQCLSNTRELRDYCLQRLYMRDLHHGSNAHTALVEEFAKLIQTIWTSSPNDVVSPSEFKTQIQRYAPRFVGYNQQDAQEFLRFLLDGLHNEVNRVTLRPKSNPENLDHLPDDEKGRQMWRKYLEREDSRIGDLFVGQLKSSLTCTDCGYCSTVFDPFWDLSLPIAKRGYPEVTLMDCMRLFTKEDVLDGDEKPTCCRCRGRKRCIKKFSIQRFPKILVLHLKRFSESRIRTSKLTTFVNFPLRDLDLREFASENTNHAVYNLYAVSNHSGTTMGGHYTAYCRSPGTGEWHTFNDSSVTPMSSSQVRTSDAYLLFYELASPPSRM

[5] = molecular target: T5, Ubiquitin carboxyl-terminal hydrolase 7 (Homo sapiens, UniProt Q93009); assay: Inhibition of USP7 (unknown origin) using ubiquitin-EKL as substrate
Target sequence in this assay (Q93009 whole entry): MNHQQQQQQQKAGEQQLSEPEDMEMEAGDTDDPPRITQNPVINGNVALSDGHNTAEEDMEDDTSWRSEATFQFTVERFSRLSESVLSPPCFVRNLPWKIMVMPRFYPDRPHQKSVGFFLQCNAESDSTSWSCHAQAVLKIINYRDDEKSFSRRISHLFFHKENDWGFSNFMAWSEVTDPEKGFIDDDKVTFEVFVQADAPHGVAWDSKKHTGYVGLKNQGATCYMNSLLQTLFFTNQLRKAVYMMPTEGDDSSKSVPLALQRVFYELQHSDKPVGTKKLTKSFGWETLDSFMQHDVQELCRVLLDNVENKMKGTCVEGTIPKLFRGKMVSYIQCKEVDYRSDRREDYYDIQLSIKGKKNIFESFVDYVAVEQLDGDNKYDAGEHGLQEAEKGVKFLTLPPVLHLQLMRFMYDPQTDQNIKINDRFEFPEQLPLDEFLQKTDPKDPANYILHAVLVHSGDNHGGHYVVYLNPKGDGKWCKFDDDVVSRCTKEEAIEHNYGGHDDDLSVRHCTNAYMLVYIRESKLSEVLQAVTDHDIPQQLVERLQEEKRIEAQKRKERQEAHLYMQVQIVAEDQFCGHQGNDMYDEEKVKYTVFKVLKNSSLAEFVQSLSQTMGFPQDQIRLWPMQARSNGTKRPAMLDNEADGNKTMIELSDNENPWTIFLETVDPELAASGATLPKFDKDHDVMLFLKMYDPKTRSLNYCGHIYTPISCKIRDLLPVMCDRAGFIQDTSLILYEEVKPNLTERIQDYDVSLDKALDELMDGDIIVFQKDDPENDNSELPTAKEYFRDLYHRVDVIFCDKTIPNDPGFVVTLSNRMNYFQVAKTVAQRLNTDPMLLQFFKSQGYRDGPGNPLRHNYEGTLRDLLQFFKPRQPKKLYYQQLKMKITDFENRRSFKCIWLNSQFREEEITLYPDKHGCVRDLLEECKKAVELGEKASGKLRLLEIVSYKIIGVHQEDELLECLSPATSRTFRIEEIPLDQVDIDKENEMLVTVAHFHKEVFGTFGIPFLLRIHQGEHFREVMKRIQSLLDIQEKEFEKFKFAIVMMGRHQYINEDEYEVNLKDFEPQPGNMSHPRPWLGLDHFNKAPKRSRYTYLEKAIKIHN

[6] = molecular target: T5, Ubiquitin carboxyl-terminal hydrolase 7; assay: Inhibition of USP7 (unknown origin) using ubiquitin-EKL as substrate at 20 uM
Target sequence in this assay (Q93009 whole entry, looked up): as the sequence (Q93009 whole entry) above

Structure (SMILES) | IC50 [5] [µM] | inhibition [6] [%] | other results
NC1=NC(=O)/C(=C2\CCNC(=O)c3[nH]c(Br)cc32)N1 |  | 20 | 
CCN(CCCNC(=O)c1ccc2nc3c(c(Cl)c2c1)CCCC3)Cc1ccccc1 | 22.6 |  | 
CN(CCCNC(=O)c1ccc2nc3c(c(Cl)c2c1)CCCC3)Cc1ccccc1 | 28.1 |  | 
N#Cc1nc2c(nc1C#N)-c1ccc(Cl)cc1C2=O | 0.42 |  | 

Further lines, with some results ahead:

IC50 [5] [µM] | inhibition [6] [%] | Structure (SMILES) | other results
3.8 |  | O=C1NC(=O)/C(=C2\CCNC(=O)c3[nH]ccc32)N1 [SPONGIACIDIN C] | growth inhibition (GI) (HCT-116): inactive; IC50 [1]: > 31.6 µM; IC50 [2]: 16.6 µM; IC50 [3]: > 31.6 µM; IC50 [4]: > 31.6 µM
 | 20 | NC1=N/C(=C2/CCNC(=O)c3[nH]ccc32)C(=O)N1 | 
